Experimental data from patent US10287305B2, “Substituted piperidine compound and use thereof” (Takeda Pharmaceutical Company Limited, priority 2016, dated 2019).

Legend:
[1] = target: human orexin type 2 receptor (hOX2R) (Homo sapiens (Human), UniProt O43614); experiment: Measurement of orexin type 2 receptor agonist activity (Experimental Example 2-1, FLIPR TETRA, intracellular Ca2+); type: cell-based; details: CHO dhfr- cells expressing hOX2R; for Emax at 30 µM: value at 30 uM concentration, orexin B as full agonist = 100%
Chain of human orexin type 2 receptor (hOX2R) (O43614 whole entry): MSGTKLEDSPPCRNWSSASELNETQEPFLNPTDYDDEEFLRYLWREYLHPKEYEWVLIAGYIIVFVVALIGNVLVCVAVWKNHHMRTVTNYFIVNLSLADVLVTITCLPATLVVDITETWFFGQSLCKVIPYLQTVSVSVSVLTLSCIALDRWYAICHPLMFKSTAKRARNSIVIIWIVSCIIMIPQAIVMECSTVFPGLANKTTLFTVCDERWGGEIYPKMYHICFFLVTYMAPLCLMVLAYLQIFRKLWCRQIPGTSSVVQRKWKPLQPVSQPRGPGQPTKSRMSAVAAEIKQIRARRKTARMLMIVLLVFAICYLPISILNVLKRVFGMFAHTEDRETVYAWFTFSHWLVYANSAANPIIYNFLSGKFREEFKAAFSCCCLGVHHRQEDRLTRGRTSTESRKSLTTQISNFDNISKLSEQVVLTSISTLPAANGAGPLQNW

[2] = test system: C57BL/6J mice; experiment: Measurement of locomotor activity in mice (Experimental Example 3); type: in vivo, mouse; details: male C57BL/6J mice; 30 mg/kg intraperitoneal; measured for 2 hr after administration
Description: Increased locomotor activity is one of the indexes of arousal action together with increase in wakefulness time, increase in body temperature, enhancement of cardiovascular system parameters and the like. In this Experimental Example, the arousal action effective for the treatment of narcolepsy was evaluated by measuring the locomotor activity of mouse. Male C57BL/6J mice (6-10 weeks old, Japan CLEA) were used for the measurement of locomotor activity (8 mice each group), infrared rays were irradiated from the top part of the cage, and a locomotor activity measuring device (MDC system—Neurosciences Idea) capable of quantifying the number of times the mice pass through the irradiated rays was used. To be specific, the mice were placed in the cage of the device and acclimatized for 4 hours or longer, and a test compound was intraperitoneally administered (dose: 30 mg/kg body weight). The locomotor activity was measured for 2 hr after the administration. In the test compound group, a solution obtained by dissolving the test compound in a solvent (composition: 10% DMSO, 10% Cremophor EL (trade name), 20% polyethylene glycol 400 (20% PEG400, 60% H2O)) was administered to mice. On the other hand, in the control group, only the aforementioned solvent not containing the test compound was administered to mice.

[3] = target: human OX2 receptor (Homo sapiens (Human), UniProt O43614); experiment: Measurement of orexin type 2 receptor agonist activity (Experimental Example 2-2, FDSS uCELL, calcium indicator); type: cell-based; details: CHO cells expressing human OX2 receptor; for EC50: Fluo-4 AM; for Emax: CHO, DMSO = 0%, reference OX-A at 10 nM
Chain of human OX2 receptor (O43614 whole entry): as above
Description: CHO cells forcibly expressing human OX2 receptor were seeded in each well of 384 well black transparent bottom plate (BD Falcon) at 7,500 cells/well, and cultured for one day in a 5% CO2 incubator at 37° C. […] The plate was stood for 30 min in a 5% CO2 incubator at 37° C., and further stood at room temperature for 30 min. A test compound prepared by diluting with assay buffer B (HESS, 20 mM HEPES, 0.1% BSA) was added at 10 μL/well, and the fluorescence value was measured by FDSSμCELL (Hamamatsu Photonics K.K.) every one sec for 1 min, and thereafter every two sec for 1 min sec.

[4] = agonist activity, 10 nM human orexin B = 100%

SMILES	EC50 [1, 4] [nM]	Emax at 30 µM [1] [%]	EC50 ([1]; FLIPR TETRA, Fluo-4AM) [nM]	Emax ([1]; FLIPR TETRA, Fluo-4AM, read-out: Emax (%)) [%]	EC50 [3] [nM]	Emax [3] [%]	locomotor activity (counts) (mean ± S.E.M., n = 8) [2]
CC(OC(=O)N1CCC[C@H](NS(=O)(=O)C2CC2)[C@@H]1COC1CCN(c2ncccn2)CC1)C(F)(F)F (relative stereo) [Example 362, 1,1,1-trifluoropropan-2-yl cis-3-((cyclopropylsulfonyl)amino)-2-(((1-(pyrimidin-2-yl)piperidin-4-yl)oxy)methyl)piperidine-1-carboxylate]	–	–	–	–	390	95	–
CC(C)OC(=O)N1CCC[C@H](NS(=O)(=O)C2CC2)[C@@H]1COC1CCN(c2ncccn2)CC1 (relative stereo) [Example 356, isopropyl cis-3-((cyclopropylsulfonyl)amino)-2-(((1-(pyrimidin-2-yl)piperidin-4-yl)oxy)methyl)piperidine-1-carboxylate]	–	–	–	–	21	98	–

The next lines start with results.

EC50 [1, 4] [nM]	Emax at 30 µM [1] [%]	EC50 ([1]; FLIPR TETRA, Fluo-4AM) [nM]	Emax ([1]; FLIPR TETRA, Fluo-4AM, read-out: Emax (%)) [%]	EC50 [3] [nM]	Emax [3] [%]	SMILES	locomotor activity (counts) (mean ± S.E.M., n = 8) [2]
2.2	98	–	–	–	–	COC(=O)N1CCC[C@H](NS(C)(=O)=O)[C@@H]1CO[C@H]1CC[C@@H](c2ccccc2)CC1 [Example 5, Methyl (2R,3S)-3-((methylsulfonyl)amino)-2-(((cis-4-phenylcyclohexyl)oxy)methyl)piperidine-1-carboxylate]	1175.25
1.9	99	–	–	–	–	CCNC(=O)N1CCC[C@H](NS(C)(=O)=O)[C@@H]1CO[C@H]1CC[C@@H](C(C)C)CC1 [Example 2, (2R,3S)—N-ethyl-2-(((cis-4-isopropylcyclohexyl)oxy)methyl)-3-((methylsulfonyl)amino)piperidine-1-carboxamide]	817.00
–	–	2.5	109	–	–	CS(=O)(=O)N[C@H]1CCCN(C(=O)CO)[C@H]1CO[C@H]1CC[C@@H](c2c(F)ccc(F)c2F)CC1 [Example 340, N-((2R,3S)-1-glycoloyl-2-(((cis-4-(2,3,6-trifluorophenyl)cyclohexyl)oxy)methyl)piperidin-3-yl)methanesulfonamide]	979.25 ± 109.96
